Where “and” joins values, the source holds several entries; their conditions need not be identical. Equal values may be shown once.
Columns and labels:
SHR and WKY rats [1] = experiment: Two weeks of oral Tempol in the drinking water: MAP, HR, renal hemodynamics, excretion, 8-ISO; format: in vivo, rat; details: Tempol 1 mM in drinking water
Description: Thereafter, WKY and SHR were anesthetized with thiobutabarbital (100 mg/kg, i.p., Inactin, Research Biochemicals International) and maintained at 37° C. on a servo-controlled heated rodent operating table. A tracheostomy was performed with polyethylene PE-240 tubing and the left jugular vein and carotid artery were cannulated with PE-50 tubing. A 1% albumin solution in 0.154 M NaCl was infused at 2 ml/h, i.v. to maintain a euvolemic state. A midline incision was made and the left renal artery was isolated. A blood flow probe was placed around the renal artery and connected to a transit-time blood flowmeter (IRB, Transonic Systems, Inc.). We have previously shown that this method of measuring real-time changes in renal blood flow (RBF) is valid in the rat. Mean arterial pressure (MAP) and heart rate (HR) were continuously recorded from the carotid artery using a Statham pressure transducer (model P23, Gould Instruments) and MACLab data acquisition software. Glomerular filtration rate (GFR) was determined from the clearance of [^3H]-inulin. Following surgery and a 60 min equilibration period, MAP, HR, GFR, and RBF were measured over 30 minutes and the data was averaged.

SHR and WKY rats [2] = experiment: MAP during constant intravenous infusion of Tempol in anesthetized rats (dose-response); format: in vivo, rat; details: Tempol 1,800 μmol·kg^−1·h^−1 i.v. infusion, 30 minutes

`CC1(C)CC(O)CC(C)(C)N1[O]` [Tempol, 4-hydroxy-2,2,6,6-tetramethyl-1-piperidinyloxy] was tested, and the RBF (SHR and WKY rats [1]; SHR, 2 weeks) was 5.6 ± 0.5 mL/min, the RVR (SHR and WKY rats [1]; SHR, 2 weeks) was 26.4 ± 2.6 mm Hg/ml/min and the UNaV (SHR and WKY rats [1]; SHR, 2 weeks) was 2.1 ± 0.2 mmol/24 hr. For the same molecule, the UV (SHR and WKY rats [1]; SHR, 2 weeks) was 15.2 ± 1.7 ml/24 hr, the “Decrease in RVR (tendency, not significant)” value (SHR and WKY rats [1]; SHR, two weeks) was 16% and the GFR (SHR and WKY rats [1]; SHR, two weeks) was 1.9 ± 0.3 mL/min and 2.0 ± 0.2 mL/min. For the same molecule, the Heart rate (SHR and WKY rats [1]; SHR, two weeks) was 414±9 bts/min, the “Increase in GFR” value (SHR and WKY rats [1]; SHR, two weeks) was 17% and the MAP (SHR and WKY rats [1]; SHR, two weeks) was 134±6 mm Hg. For the same molecule, the “UV8-ISO (8-iso-prostaglandin F2α excretion)” value (SHR and WKY rats [1]; SHR, two weeks) was 6.0±0.7 ng/24 hr, the “Decrease in MAP compared to normal SHR” value (SHR and WKY rats [1]; SHR, two weeks, p<0.05) was 18% and the “Decrease in UV8-ISO (8-iso-prostaglandin F2α excretion)” value (SHR and WKY rats [1]; SHR, two weeks, p<0.05) was 39%. The Body weight gain (SHR and WKY rats [1]; 2 weeks, WKY and SHR pooled) was 66±3 g/14 days, the Food intake (SHR and WKY rats [1]; 2 weeks, WKY and SHR pooled) was 24 ± 1 g/day and the Water intake (SHR and WKY rats [1]; 2 weeks, WKY and SHR pooled, p<0.05 vs control) was 43 ± 3 mL/day. For the same molecule, the GFR (SHR and WKY rats [1]; WKY, 2 weeks) was 2.5 ± 0.4 mL/min, the RBF (SHR and WKY rats [1]; WKY, 2 weeks) was 8.8 ± 0.9 mL/min and the RVR (SHR and WKY rats [1]; WKY, 2 weeks) was 14.2 ± 1.4 mm Hg/ml/min. It also gave a UNaV (SHR and WKY rats [1]; WKY, 2 weeks) of 2.4 ± 0.6 mmol/24 hr, a UV (SHR and WKY rats [1]; WKY, 2 weeks) of 16.7 ± 2.3 ml/24 hr and a Heart rate (SHR and WKY rats [1]; WKY, two weeks) of 373±8 bts/min. For the same molecule, the MAP (SHR and WKY rats [1]; WKY, two weeks) was 118±7 mm Hg, the MAP (SHR and WKY rats [2]; SHR) was 72±10 mm Hg and the MAP (SHR and WKY rats [2]; WKY) was 71±3 mm Hg.

— patent publication US6617337B1, “Use of nitroxides for the treatment of essential hypertension” (Georgetown University, priority 1997, dated 2003)
